Assay [1] concerns the target human GABAA receptors composed of the α1β2γ2 subunits (Homo sapiens (Human), UniProt P14867+P18507+P47870). Briefly: α1β2γ2 SyncroPatch automated patch clamp assay. It is filed as cell-based. The following applies: for EC50: HEK cells, potentiation of submaximal GABA current, clamped at −120 mV; for α1β2γ2 EMAX: peak current after GABA+compound divided by peak current after GABA alone. The essentials: (§1)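 Whole-cell recordings in HEK cells stably expressing each receptor, held at −120 mV, pH 7.4 extracellular/pH 7.2 KF-based intracellular solution. Submaximal GABA (3-5 μM or 10 μM) applied, then GABA plus compound at 0.029-30 μM (six concentrations, n=8-12 cells). Effect = peak current ratio GABA+compound/GABA alone; EC50 and Emax from concentration means.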

In assay [2] the target is [35S]-TBPS binding, rat brain cortical membranes. Put plainly: Steroid inhibition of [35S]-TBPS binding. The conditions noted are these: 3 nM [35S]-TBPS, in the presence of 5 mM GABA. In short, it runs like this:
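In the presence of […], compounds (DMSO 0.5% final) competed with 3 nM [35S]-TBPS for Sprague-Dawley rat cortical membranes, pH 7.4 phosphate buffer, 90 min, room temperature. Filtration and scintillation counting; specific binding defined by […]; IC50 and maximal inhibition fitted per experiment, averaged as mean ± SEM.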

The target of assay [3] is human GABAA receptors composed of the α4β3δ subunits (Homo sapiens (Human), UniProt O14764+P28472+P48169). Put plainly: α4β3δ SyncroPatch automated patch clamp assay. In kind it is cell-based. The following applies: for EC50: HEK cells, potentiation of submaximal GABA current, clamped at −120 mV; for α4β3δ EMAX: peak current after GABA+compound divided by peak current after GABA alone. In short, it runs like this: as §1
Background: Patch clamp records ionic current or voltage across a cell membrane.

human GABAA receptors composed of the α4β3δ subunits, sequence (P48169 36-554 limits assumed): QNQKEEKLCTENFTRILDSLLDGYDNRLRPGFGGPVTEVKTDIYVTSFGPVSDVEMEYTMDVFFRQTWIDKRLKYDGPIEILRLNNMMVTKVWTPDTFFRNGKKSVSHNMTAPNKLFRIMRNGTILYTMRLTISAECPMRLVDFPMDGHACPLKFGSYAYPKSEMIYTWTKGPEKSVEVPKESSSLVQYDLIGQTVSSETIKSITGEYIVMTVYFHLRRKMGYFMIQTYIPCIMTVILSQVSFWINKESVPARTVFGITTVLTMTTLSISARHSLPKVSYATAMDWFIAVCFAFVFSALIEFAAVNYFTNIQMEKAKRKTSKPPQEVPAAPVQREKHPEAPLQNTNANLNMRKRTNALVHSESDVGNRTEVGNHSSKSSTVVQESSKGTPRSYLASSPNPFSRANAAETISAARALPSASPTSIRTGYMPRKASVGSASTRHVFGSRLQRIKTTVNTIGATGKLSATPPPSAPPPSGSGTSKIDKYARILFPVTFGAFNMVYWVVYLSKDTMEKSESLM
human GABAA receptors composed of the α4β3δ subunits, sequence (P28472 26-473 limits assumed): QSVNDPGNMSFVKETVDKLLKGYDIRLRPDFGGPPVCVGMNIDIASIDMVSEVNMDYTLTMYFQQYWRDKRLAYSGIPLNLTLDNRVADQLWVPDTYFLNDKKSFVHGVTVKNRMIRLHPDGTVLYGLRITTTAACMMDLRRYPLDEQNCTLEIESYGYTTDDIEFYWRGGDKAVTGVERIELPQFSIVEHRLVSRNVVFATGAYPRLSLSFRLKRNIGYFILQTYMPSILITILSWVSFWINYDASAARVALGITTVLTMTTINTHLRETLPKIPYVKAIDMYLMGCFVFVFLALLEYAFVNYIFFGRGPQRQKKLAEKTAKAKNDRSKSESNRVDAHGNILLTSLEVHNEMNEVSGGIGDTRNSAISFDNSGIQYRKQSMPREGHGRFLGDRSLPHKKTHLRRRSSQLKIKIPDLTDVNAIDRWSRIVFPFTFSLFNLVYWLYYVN
human GABAA receptors composed of the α4β3δ subunits, sequence (O14764 17-452 limits assumed): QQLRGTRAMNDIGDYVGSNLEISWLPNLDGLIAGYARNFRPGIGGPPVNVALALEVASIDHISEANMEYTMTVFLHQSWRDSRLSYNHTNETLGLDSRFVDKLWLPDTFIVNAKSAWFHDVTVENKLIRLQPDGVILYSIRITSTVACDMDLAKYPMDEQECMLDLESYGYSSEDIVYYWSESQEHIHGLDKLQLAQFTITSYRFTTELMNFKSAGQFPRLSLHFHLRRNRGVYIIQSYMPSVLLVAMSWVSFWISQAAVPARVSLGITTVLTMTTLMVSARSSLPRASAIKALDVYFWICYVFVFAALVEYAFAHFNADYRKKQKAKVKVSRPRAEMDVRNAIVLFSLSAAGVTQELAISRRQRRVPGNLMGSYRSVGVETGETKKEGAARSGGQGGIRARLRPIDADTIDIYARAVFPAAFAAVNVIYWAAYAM
human GABAA receptors composed of the α1β2γ2 subunits, sequence (P14867 28-456 limits assumed): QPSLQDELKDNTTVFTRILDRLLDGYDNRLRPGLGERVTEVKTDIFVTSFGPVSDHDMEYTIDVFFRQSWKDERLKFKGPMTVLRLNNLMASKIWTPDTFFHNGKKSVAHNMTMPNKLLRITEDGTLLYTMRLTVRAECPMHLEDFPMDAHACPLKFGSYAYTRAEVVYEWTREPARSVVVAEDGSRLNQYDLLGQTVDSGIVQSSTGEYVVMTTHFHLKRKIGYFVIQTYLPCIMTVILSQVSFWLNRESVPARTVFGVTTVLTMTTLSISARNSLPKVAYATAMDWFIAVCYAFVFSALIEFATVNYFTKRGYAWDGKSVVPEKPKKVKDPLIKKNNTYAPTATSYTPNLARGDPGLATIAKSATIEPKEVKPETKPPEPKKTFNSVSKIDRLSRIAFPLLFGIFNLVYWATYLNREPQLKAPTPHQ
human GABAA receptors composed of the α1β2γ2 subunits, sequence (P47870 25-512 limits assumed): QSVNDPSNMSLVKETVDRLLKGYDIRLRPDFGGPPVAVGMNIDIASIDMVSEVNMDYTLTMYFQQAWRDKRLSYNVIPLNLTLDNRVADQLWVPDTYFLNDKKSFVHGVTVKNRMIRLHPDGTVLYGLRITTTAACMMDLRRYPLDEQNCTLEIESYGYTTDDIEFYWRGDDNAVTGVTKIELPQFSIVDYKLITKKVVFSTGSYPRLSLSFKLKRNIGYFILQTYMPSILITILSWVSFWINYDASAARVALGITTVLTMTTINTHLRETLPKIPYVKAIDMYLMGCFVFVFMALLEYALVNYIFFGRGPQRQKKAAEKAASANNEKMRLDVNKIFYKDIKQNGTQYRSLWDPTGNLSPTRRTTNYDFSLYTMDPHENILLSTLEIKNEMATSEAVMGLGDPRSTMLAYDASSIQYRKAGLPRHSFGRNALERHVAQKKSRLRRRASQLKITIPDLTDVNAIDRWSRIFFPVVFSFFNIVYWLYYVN
human GABAA receptors composed of the α1β2γ2 subunits, sequence (P18507 40-475 limits assumed): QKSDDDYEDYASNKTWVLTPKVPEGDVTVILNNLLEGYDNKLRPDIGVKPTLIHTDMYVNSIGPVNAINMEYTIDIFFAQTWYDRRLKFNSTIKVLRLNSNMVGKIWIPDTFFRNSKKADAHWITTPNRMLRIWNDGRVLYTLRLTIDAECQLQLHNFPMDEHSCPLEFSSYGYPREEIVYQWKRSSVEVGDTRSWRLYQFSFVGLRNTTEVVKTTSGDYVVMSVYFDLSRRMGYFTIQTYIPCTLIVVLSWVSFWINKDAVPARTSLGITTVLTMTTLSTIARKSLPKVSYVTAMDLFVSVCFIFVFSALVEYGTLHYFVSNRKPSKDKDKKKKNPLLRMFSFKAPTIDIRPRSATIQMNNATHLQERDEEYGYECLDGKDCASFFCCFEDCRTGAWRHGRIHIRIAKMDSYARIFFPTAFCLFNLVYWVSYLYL

`C[C@@H](Cc1nc(C(F)(F)F)cs1)[C@H]1CC[C@H]2[C@@H]3CC[C@@H]4C[C@](C)(O)CC[C@]4(C)[C@H]3CC[C@]12C` [Example 453]: in assay [1], the EC50 fell in the range of 200 to 1000 nM and the “α1β2γ2 EMAX” value was “A (A indicates an Emax response <8)”. The IC50 in assay [2] was < 100 nM. For the same molecule, in assay [3], the EC50 is < 200 nM and the “α4β3δ EMAX” value is listed as “A (A indicates an Emax response <30)”.

Take `CCOC[C@@]1(O)CC[C@@]2(C)[C@H](CC[C@@H]3[C@@H]2CC[C@]2(C)[C@@H]([C@@H](C)Cn4nccc4C#N)CC[C@@H]32)C1` [Example 280, 1-((R)-2-((3R,5R,8R,9S,10S,13S,14S,17R)-3-(ethoxymethyl)-3-hydroxy-10,13-dimethylhexadecahydro-1H-cyclopenta[a]phenanthren-17-yl)propyl)-1H-pyrazole-5-carbonitrile]: in assay [1], the half-maximal effective concentration (EC50) is < 200 nM and the “α1β2γ2 EMAX” value was “C (C indicates an Emax response ≥10)”. Moreover, the IC50 in assay [2] was < 100 nM. For the same molecule, in assay [3], the EC50 was < 200 nM and the “α4β3δ EMAX” value is recorded as “B (B indicates an Emax response 30 to <45)”.

`CCOC[C@@]1(O)CC[C@H]2[C@H](CC[C@@H]3[C@@H]2CC[C@]2(C)[C@@H]([C@@H](C)N(C)S(=O)(=O)c4cccc(C#N)n4)CC[C@@H]32)C1` [Example 72]: in assay [1], the EC50 lay within 200 to 1000 nM and the “α1β2γ2 EMAX” value is “C (C indicates an Emax response ≥10)”. Also, the IC50 in assay [2] is < 100 nM. Besides, in assay [3], the EC50 fell in the range of 200 to 1000 nM and the “α4β3δ EMAX” value is recorded as “C (C indicates an Emax response ≥45)”.

`Cc1cnc(C[C@@H](C)[C@H]2CC[C@H]3[C@@H]4CC[C@@H]5C[C@](C)(O)CC[C@@H]5[C@H]4CC[C@]23C)nc1` [Example 438]: in assay [1], the EC50 was 200 to 1000 nM and the “α1β2γ2 EMAX” value is “A (A indicates an Emax response <8)”. The IC50 in assay [2] is 100 to 1000 nM. Besides, in assay [3], the EC50 is ≥ 1000 nM and the “α4β3δ EMAX” value is given as “B (B indicates an Emax response 30 to <45)”.

Consider `C[C@H](Cc1cncc(C#N)c1)[C@H]1CC[C@H]2[C@@H]3CC[C@@H]4C[C@](C)(O)CC[C@@H]4[C@H]3CC[C@]12C` [Example 406, 5-((R)-2-((3R,5R,8R,9R,10S,13R,14S,17R)-3-hydroxy-3,13-dimethylhexadecahydro-1H-cyclopenta[a]phenanthren-17-yl)propyl)nicotinonitrile], for which, in assay [1], the 50% effective concentration (EC50) is < 200 nM and the “α1β2γ2 EMAX” value is listed as “A (A indicates an Emax response <8)”. The IC50 in assay [2] is < 100 nM. Also, in assay [3], the EC50 is < 200 nM and the “α4β3δ EMAX” value is “B (B indicates an Emax response 30 to <45)”.

Regarding `CCOC[C@@]1(O)CC[C@@]2(C)[C@H](CC[C@@H]3[C@@H]2CC[C@]2(C)[C@@H]([C@H](C)Cn4ccc(C#N)n4)CC[C@@H]32)C1` [Example 278, 1-((S)-2-((3R,5R,8R,9S,10S,13S,14S,17R)-3-(ethoxymethyl)-3-hydroxy-10,13-dimethylhexadecahydro-1H-cyclopenta[a]phenanthren-17-yl)propyl)-1H-pyrazole-3-carbonitrile], in assay [1], the EC50 is < 200 nM and the “α1β2γ2 EMAX” value was “A (A indicates an Emax response <8)”. The half-maximal inhibitory concentration (IC50) in assay [2] was < 100 nM. Also, in assay [3], the EC50 is < 200 nM and the “α4β3δ EMAX” value was “A (A indicates an Emax response <30)”.

On to `CCC[C@@]1(O)CC[C@H]2[C@H](CC[C@@H]3[C@@H]2CC[C@]2(C)[C@@H]([C@@H](C)Cn4cc(C#N)cn4)CC[C@@H]32)C1` [Example 65, 1-((R)-2-((3R,5R,8R,9R,10S,13S,14S,17R)-3-hydroxy-13-methyl-3-propylhexadecahydro-1H-cyclopenta[a]phenanthren-17-yl)propyl)-1H-pyrazole-4-carbonitrile], for which, in assay [1], the EC50 was ≥ 1000 nM and the “α1β2γ2 EMAX” value is on record as “A (A indicates an Emax response <8)”. The IC50 in assay [2] is < 100 nM. In assay [3], the EC50 is < 200 nM and the “α4β3δ EMAX” value was “B (B indicates an Emax response 30 to <45)”.

Take `CCOC[C@@]1(O)CC[C@H]2[C@H](CC[C@@H]3[C@@H]2CC[C@]2(C)[C@@H]([C@@H](C)NC(=O)c4ccc(F)cc4F)CC[C@@H]32)C1` [Example 132]: in assay [1], the EC50 is ≥ 1000 nM and the “α1β2γ2 EMAX” value is “C (C indicates an Emax response ≥10)”. In addition, in assay [2], the IC50 is < 100 nM. Besides, in assay [3], the EC50 was ≥ 1000 nM and the “α4β3δ EMAX” value was “B (B indicates an Emax response 30 to <45)”.

`CCC[C@@]1(O)CC[C@H]2[C@H](CC[C@@H]3[C@@H]2CC[C@]2(C)[C@@H]([C@H](C)Cn4nnnc4C)CC[C@@H]32)C1` [Example 323, (3R,5R,8R,9R,10S,13S,14S,17R)-13-methyl-17-(1-(5-methyl-1H-tetrazol-1-yl)propan-2-yl)-3-propylhexadecahydro-1H-cyclopenta[a]phenanthren-3-ol]: in assay [1], the half-maximal effective concentration (EC50) is < 200 nM and the “α1β2γ2 EMAX” value is given as “C (C indicates an Emax response ≥10)”. The IC50 in assay [2] is < 100 nM. In assay [3], the EC50 is 200 to 1000 nM and the “α4β3δ EMAX” value was “B (B indicates an Emax response 30 to <45)”.

`C[C@H](Cc1nccc(C#N)n1)[C@H]1CC[C@H]2[C@@H]3CC[C@@H]4C[C@](C)(O)CC[C@@H]4[C@H]3CC[C@]12C` [Example 436]: in assay [1], the EC50 lay in the range of 200 to 1000 nM and the “α1β2γ2 EMAX” value is recorded as “A (A indicates an Emax response <8)”. Also, the IC50 in assay [2] was 100 to 1000 nM. Further, in assay [3], the EC50 was ≥ 1000 nM and the “α4β3δ EMAX” value is on record as “B (B indicates an Emax response 30 to <45)”.

With `C[C@@H](Cc1ccc(C(F)(F)F)nc1)[C@H]1CC[C@H]2[C@@H]3CC[C@@H]4C[C@](C)(O)CC[C@@H]4[C@H]3CC[C@]12C` [Example 443], in assay [1], the EC50 is < 200 nM and the “α1β2γ2 EMAX” value is “C (C indicates an Emax response ≥10)”. Besides, the IC50 in assay [2] was < 100 nM. Besides, in assay [3], the EC50 is < 200 nM and the “α4β3δ EMAX” value was “B (B indicates an Emax response 30 to <45)”.

Regarding `CCOC[C@@]1(O)CC[C@H]2[C@H](CC[C@@H]3[C@@H]2CC[C@]2(C)[C@@H]([C@H](C)Cn4nccc4C#N)CC[C@@H]32)C1` [Example 286, 1-((S)-2-((3R,5R,8R,9R,10S,13S,14S,17R)-3-(ethoxymethyl)-3-hydroxy-13-methylhexadecahydro-1H-cyclopenta[a]phenanthren-17-yl)propyl)-1H-pyrazole-5-carbonitrile], in assay [1], the half-maximal effective concentration (EC50) is < 200 nM and the “α1β2γ2 EMAX” value is reported as “B (B indicates an Emax response 8 to <10)”. In assay [2], the IC50 was < 100 nM. In assay [3], the EC50 lay within 200 to 1000 nM and the “α4β3δ EMAX” value is reported as “A (A indicates an Emax response <30)”.

As for `Cc1cnc(C[C@H](C)[C@H]2CC[C@H]3[C@@H]4CC[C@@H]5C[C@](C)(O)CC[C@@H]5[C@H]4CC[C@]23C)cn1` [Example 439], in assay [1], the EC50 is < 200 nM and the “α1β2γ2 EMAX” value was “C (C indicates an Emax response ≥10)”. In addition, in assay [2], the IC50 was < 100 nM. For the same molecule, in assay [3], the EC50 is < 200 nM and the “α4β3δ EMAX” value was “C (C indicates an Emax response ≥45)”.

`COC[C@@]1(O)CC[C@H]2[C@H](CC[C@@H]3[C@@H]2CC[C@]2(C)[C@@H]([C@H](C)Cc4ccc(C#N)nc4)CC[C@@H]32)C1` [Example 405, 5-((R)-2-((3R,5R,8R,9R,10S,13R,14S,17R)-3-hydroxy-3-(methoxymethyl)-13-methylhexadecahydro-1H-cyclopenta[a]phenanthren-17-yl)propyl)picolinonitrile]: in assay [1], the EC50 was ≥ 1000 nM and the “α1β2γ2 EMAX” value is listed as “C (C indicates an Emax response ≥10)”. The 50% inhibitory concentration (IC50) in assay [2] is < 100 nM. In addition, in assay [3], the EC50 is < 200 nM and the “α4β3δ EMAX” value is on record as “B (B indicates an Emax response 30 to <45)”.

A word on the EC50: it is the concentration at which the effect is half-maximal. The IC50 is the midpoint of a concentration-inhibition curve.

These data come from patent US20230322846A9, “NEUROACTIVE STEROIDS AND THEIR METHODS OF USE” (SAGE THERAPEUTICS, INC., priority 2018, published 2023).
